# Experimental data published in patent US8729334B2, “Method for determining genotoxicity using non-fluorescent proteins” (priority 2010, dated 2014).
# Where two headings read alike, the source gives them in different places.
# Experiments:
# [1] = tested on: CH4003 (TA98 carrying EGFP^mut3 on chromosome); details: for Number of revertants, EGFP^mut2 TA98, phenotype EGFP^+: total 10^6 bacteria plated on NA plates
# Method: (§1) The EGFP^mut DNA was inserted into the chromosome of Salmonella typhimurium LT2 strain via its putA site approximately 5 minutes away from the termination (ter) region of the chromosome (Elliott, 1992). lacP-EGFP^mut::CAT DNA was amplified with primers that contain sequences for the putA site of S. enterica serovar Typhimurium: 5′-primer […] […] […], which consisted of 50-nt or 55-nt of putA (putA sequences are underlined) and 25-nt or 22-nt sequences flaking lacP-nonEGFP::cat using pEGFP^mut::CAT plasmid as template. The 1.4-kbp PCR products were purified and transformed into bacteria carrying a Red helper plasmid (pKD46) by electroporation (Datsenko and Wanner, 2000). The Linear DNA contained a chloramphenicol gene as a marker for the P22 transduction into the S. typhimurium strain of Ames test, TA100 and TA98 to construct CH4001 and 4003, respectively (Davis, et al., 1980).
# (§2) Subsequently, the gene for EGFP^mut was placed in the chromosome of relevant Salmonella typhimurium to establish mutation test strains analogous to that of Ames test. Linear DNA transformation method using λ Red system (Datsenko and Wanner, 2000) was employed to place the EGFP^mut genes at putAP sites (Elliott, 1992) in the wild type Salmonella chromosome, LT2. Then, each EGFP^mut1 and EGFP^mut3 gene was moved to TA100 and TA98 using generalized transducing phage, P22, resulting in a construction of CH 4001 and 4003.
# (§3) We tested mutation frequency of these two strains together with conventional Ames test strains, TA100 and TA98, in the presence of mutagens, ENU and ICR191. ENU is known to induce base-pair substitution while ICR191 frameshift mutation (OECD, 1997). His^+ revertants were selected on minimal plates and EGFP^+ revertants were screened on NA plates which allowed visualization of about 10^6 colonies individually. […], a test strain for frameshift mutation, together with TA98, was incubated with 1 mg/plate ICR191.
# [2] = tested on: CH4001 (TA100 carrying EGFP^mut1 on chromosome)
# Method: as §1, §2, §3
# [3] = tested on: MutaFish^1 carrying EGFP^mut1; test: Genotoxicity test in transgenic zebrafish embryos, MutaFish^1
# Source text: EGFP^mut plasmid constructed as described above was microinjected into one-cell stage fertilized eggs laid by the AB* zebrafish line (Oregon University, Corvallis, Oreg.) with transposase mRNA. The microinjected eggs were raised to sexual maturity and mated to wild type AB* zebrafish. Subsequently, the resulting embryos were screened for the presence of mCherry fluorescence in the heart. The screened embryos (hereinafter named as F1) were processed for RT-PCR, Western blotting and Southern blotting to verify the genomic integration of mutant EGFP. The F1 embryos were raised again to sexual maturity and mated to each other to generate F2 embryos homozygous for EGFP^mut. F3 embryos, generated by in-cross between F2 zebrafish, were raised again to sexual maturity.
# Fertilized eggs were obtained by pair mating transgenic F3 female and nontransgenic male fish. We divided 24 hr embryos, still coated with chorion, into three groups (266 embryos/group) and exposed them for 30 min at 26° C. to 10 ml of 0, 2, or 5 mM ENU in 0.1% Instant Ocean salts (Senja Pharmaceutical, Hyogo, Japan). Mutagenized embryos were then rinsed and kept in a 28.5° C. incubator for three days. […] The pooled surviving larvae were checked for morphological abnormality and EGFP^+ larvae were selected and then scored by FACSAria (BD Biosciences).
# We injected Tol2 plasmid encoding EGFP^mut and transposase mRNA into one-cell stage fertilized zebrafish eggs. F1 progeny with germline transmission were selected by PCR and Southern blot analysis as described in the Experimental Protocol.
# To evaluate whether these transgenic fishes could detect mutations in vivo, 24 hr embryos obtained by pair mating the transgenic and nontransgenic fish were treated with mutagens for 30 min: MutaFish^1 with ENU (5 mM) and MutaFish^3 with ICR191 (10 mM). Three days after treatment, the number of EGFP^+ larvae was determined (Table 4).
# S. typhimurium TA100 = test: Ames test, His+ reversion, tester strain TA100
# Method: (§4) S. typhimurium strain of Ames test, TA98 and TA, were purchased and grown following manufacture's instruction (Xenometrix AG, Switzerland). CH4001 and CH4003 strains carrying EGFP^mut DNA on their chromosomes (Table 1) were created as described in Result section.
# (§5) The plate-incorporation assay was carried out as described (OECD, 1997). Briefly, bacterial cells from stock cultures were grown for 12 hr in liquid medium at 37° C. A volume of 0.1 mL bacterial suspension was added to 2 mL of top agar (Difco) medium containing 0.6% agar, 0.6% NaCl and 20.96 μg of l-histidine and d-biotin (Sigma). Test solution (or solvent control, or positive control agent) and the S9-mix (0.5 mL/plate; 10% (v/v) S9) or potassium phosphate buffer (0.5 mL/plate; 0.2 M, pH 7.4; Sigma) were also added to the top agar which was then mixed and poured onto the top of Vogel-Bonner minimal medium agar plates (3 replicates/dose for the treated and 6 replicates for the solvent control). Colonies were counted 48 hr after incubation at 37° C. The highest volume of the test solution added per plate was initially limited to 100 μL, and then increased up to 200 μL in confirmation studies.
# We tested mutation frequency of these two strains together with conventional Ames test strains, TA100 and TA98, in the presence of mutagens, ENU and ICR191. […]
# [4] = tested on: CH4003 (TA98 carrying EGFP^mut3 on chromosome); test: His+ reversion, strain CH4003; details: for Number of revertants, EGFP^mut2 TA98, phenotype His^+: total 10^6 bacteria plated on minimal media plates
# Method: as §1, §5
# Subsequently, the gene for EGFP^mut was placed in the chromosome of relevant Salmonella typhimurium to establish mutation test strains analogous to that of Ames test. […]
# [5] = tested on: CH4001 (TA100 carrying EGFP^mut1 on chromosome); test: His+ reversion, strain CH4001
# Method: as §1
# The plate-incorporation assay was carried out as described (OECD, 1997). Briefly, bacterial cells from stock cultures were grown for 12 hr in liquid medium at 37° C. A volume of 0.1 mL bacterial suspension was added to 2 mL of top agar (Difco) medium containing 0.6% agar, 0.6% NaCl and 20.96 μg of l-histidine and d-biotin (Sigma). […] Colonies were counted 48 hr after incubation at 37° C. […]
# S. typhimurium TA98 = test: Ames test, His+ reversion, tester strain TA98; details: for Number of revertants, TA98, phenotype His^+: total 10^6 bacteria plated on minimal media plates
# Method: as §4, §5, §3
# [6] = tested on: MutaFish^3 carrying EGFP^mut3; test: Genotoxicity test in transgenic zebrafish embryos, MutaFish^3; format: in vivo, zebrafish (Danio rerio)
# Method: Almost all embryos were hatched during this incubation period.
# One highly transgene-positive line was established.
# [7] = EGFP^mut1 MutaFish, 24 hr embryos, 5 mM ENU for 30 min, scored three days after treatment
# [8] = 0.1 mg/plate ENU, total 10^6 bacteria plated on minimal media plates
compound,measurement,setting,value
CCN(N=O)C(N)=O [ENU],"Number of revertants, EGFP^mut2 TA98, phenotype EGFP^+",[1]; 0.1 mg/plate ENU,3.2
same,"Number of revertants, EGFP^mut1 TA100, phenotype EGFP^+","[2]; 0.1 mg/plate ENU, total 10^6 bacteria plated on NA plates",7.1
same,frequency of EGFP^+ reversion,"[2]; in the presence of ENU (0.1 mg/plate), CH4001",7.1×10^−6
same,Morphological abnormality (%),[3]; [7],20.9%
same,Survival rate (%),[3]; [7],97.3%
same,Mutant frequency × 10^−5,"[3]; EGFP^mut1 MutaFish, EGFP^+ larvae, 5 mM ENU for 30 min, three days after treatment",63 × 10^−5
same,frequency of EGFP^+ larvae,"[3]; MutaFish^1, ENU 5 mM for 30 min, three days after treatment",6.3×10^−4
same,"Number of revertants, TA100, phenotype His^+",S. typhimurium TA100; [8],5.6
same,frequency of His^+ revertants in TA100,S. typhimurium TA100; 0.1 mg/plate of ENU,5.6×10^−6
same,"Number of revertants, EGFP^mut2 TA98, phenotype His^+",[4]; 0.1 mg/plate ENU,3.5
same,"Number of revertants, EGFP^mut1 TA100, phenotype His^+",[5]; [8],5.2
same,frequency of His^+ revertants in CH4001,[5]; 0.1 mg/plate of ENU,5.2×10^−6
same,"Number of revertants, TA98, phenotype His^+",S. typhimurium TA98; 0.1 mg/plate ENU,3.2
COc1ccc2nc3cc(Cl)ccc3c(NCCCNCCCl)c2c1 [ICR191],frequency of EGFP^+ larvae,"[6]; MutaFish^3, ICR191 10 mM for 30 min, three days after treatment",2.32×10^−3
same,Morphological abnormality (%),"[6]; zebrafish, in vivo",24.2%
same,Mutant frequency × 10^−5,"[6]; zebrafish, in vivo",232 × 10^−5
same,Survival rate (%),"[6]; zebrafish, in vivo",79.2%
same,"Number of revertants, EGFP^mut2 TA98, phenotype EGFP^+",[1]; 1 mg/plate ICR191,456.3
same,frequency of EGFP^+ revertants,"[1]; in the presence of ICR191 (1 mg/plate), CH4003",456.3×10^−6
same,mutation frequency of His^+ revertants in CH4003,[4]; 1 mg/plate ICR191,420.8×10^−6
same,"Number of revertants, EGFP^mut2 TA98, phenotype His^+",[4]; 1 mg/plate ICR191,377.6
same,frequency of His^+ revertants in TA98,S. typhimurium TA98; 1 mg/plate ICR191,327.6×10^−6
same,"Number of revertants, TA98, phenotype His^+",S. typhimurium TA98; 1 mg/plate ICR191,420.8
